Data from publication PMC5218480 (PLoS ONE, 2017).

System: MV-4-11 cells
Assay: Gene expression microarray analysis (Affymetrix PrimeView) and GSEA
Type: cell-based, human
Parameters: RFU PODN (11730768_x_at) / Fold change /veh PODN (11730768_x_at) / RFU LINC00158 (11744669_a_at) / Fold change /veh LINC00158 (11744669_a_at) / RFU DUSP10 (11751237_a_at) / Fold change /veh DUSP10 (11751237_a_at) / RFU ID3 (11757404_x_at) / Fold change /veh ID3 (11757404_x_at) / RFU PLEKHG5 (11737974_s_at) / Fold change /veh PLEKHG5 (11737974_s_at) / RFU LRRC4B (11730491_at) / Fold change /veh LRRC4B (11730491_at) / RFU GIMAP4 (11747438_a_at) / Fold change /veh GIMAP4 (11747438_a_at) / RFU KRT8 (11758183_x_at) / Fold change /veh KRT8 (11758183_x_at) / RFU CNN1 (11734310_a_at) / Fold change /veh CNN1 (11734310_a_at) / RFU VPS37D (11726825_at) / Fold change /veh VPS37D (11726825_at) / RFU C10orf10 (11716522_x_at) / Fold change /veh C10orf10 (11716522_x_at) / RFU KIR2DL2 /// KIR2DL4 /// KIR2DL5A /// KIR2DL5B /// KIR2DS1 /// KIR2DS2 /// KIR2DS3 /// KIR2DS4 /// KIR3DL3 /// KIR3DL3 /// KIR3DS1 (11738374_at) / Fold change /veh KIR2DL2 /// KIR2DL4 /// KIR2DL5A /// KIR2DL5B /// KIR2DS1 /// KIR2DS2 /// KIR2DS3 /// KIR2DS4 /// KIR3DL3 /// KIR3DL3 /// KIR3DS1 (11738374_at) / RFU C1QL1 (11718748_at) / Fold change /veh C1QL1 (11718748_at) / RFU TMPRSS4 (11747572_a_at) / Fold change /veh TMPRSS4 (11747572_a_at) / RFU HAMP (11756126_x_at) / Fold change /veh HAMP (11756126_x_at) / RFU RNFT2 (11725882_a_at) / Fold change /veh RNFT2 (11725882_a_at) / RFU NR4A2 (11747474_a_at) / Fold change /veh NR4A2 (11747474_a_at) / RFU ABCC12 (11746883_a_at) / Fold change /veh ABCC12 (11746883_a_at) / RFU TMEM136 (11760407_x_at) / Fold change /veh TMEM136 (11760407_x_at) / RFU CLDN22 /// WWC2 (11732394_at) / Fold change /veh CLDN22 /// WWC2 (11732394_at) / RFU HLA-DPB1 (11760878_x_at) / Fold change /veh HLA-DPB1 (11760878_x_at) / RFU SPINT1 (11716480_a_at) / Fold change /veh SPINT1 (11716480_a_at) / RFU GAP43 (11754022_s_at) / Fold change /veh GAP43 (11754022_s_at) / RFU A4GNT (11735810_at) / Fold change /veh A4GNT (11735810_at) / RFU PRB3 (11715151_x_at) / Fold change /veh PRB3 (11715151_x_at) / RFU TUBB4B (11761932_at) / Fold change /veh TUBB4B (11761932_at) / RFU CAPN14 (11732068_a_at) / Fold change /veh CAPN14 (11732068_a_at) / RFU TMCC2 (11721928_a_at) / Fold change /veh TMCC2 (11721928_a_at) / RFU IRGQ (11745062_a_at) / Fold change /veh IRGQ (11745062_a_at) / RFU FAM174B (11720279_a_at) / Fold change /veh FAM174B (11720279_a_at) / RFU TMPRSS4 (11748680_a_at) / Fold change /veh TMPRSS4 (11748680_a_at) / RFU FAM212B (11763350_a_at) / Fold change /veh FAM212B (11763350_a_at) / RFU PLEKHG5 (11743358_a_at) / Fold change /veh PLEKHG5 (11743358_a_at) / RFU ZSCAN30 (11745921_a_at) / Fold change /veh ZSCAN30 (11745921_a_at) / RFU CMKLR1 (11741424_a_at) / Fold change /veh CMKLR1 (11741424_a_at) / RFU LOC101060620 /// MAPK8IP1 (11723275_at) / Fold change /veh LOC101060620 /// MAPK8IP1 (11723275_at) / RFU SPTSSB (11747773_x_at) / Fold change /veh SPTSSB (11747773_x_at) / RFU PRSS12 (11739890_at) / Fold change /veh PRSS12 (11739890_at) / RFU BIN1 (11741810_x_at) / Fold change /veh BIN1 (11741810_x_at) / RFU WNT11 (11732464_a_at) / Fold change /veh WNT11 (11732464_a_at) / RFU C10orf10 (11716521_a_at) / Fold change /veh C10orf10 (11716521_a_at) / RFU C5orf56 (11738089_at) / Fold change /veh C5orf56 (11738089_at) / RFU CYB561 (11721691_x_at) / Fold change /veh CYB561 (11721691_x_at) / RFU ANKRD19P (11752326_a_at) / Fold change /veh ANKRD19P (11752326_a_at) / RFU OR2T12 /// OR2T33 /// OR2T8 (11738714_s_at) / Fold change /veh OR2T12 /// OR2T33 /// OR2T8 (11738714_s_at) / RFU VCAN (11748164_a_at) / Fold change /veh VCAN (11748164_a_at) / RFU JSRP1 (11732532_at) / Fold change /veh JSRP1 (11732532_at) / RFU KRTAP10-11 (11738290_x_at) / Fold change /veh KRTAP10-11 (11738290_x_at) / RFU MYO3A (11730013_a_at) / Fold change /veh MYO3A (11730013_a_at) / RFU EBF3 (11725865_a_at) / Fold change /veh EBF3 (11725865_a_at) / RFU CAMK2N1 (11719241_x_at) / Fold change /veh CAMK2N1 (11719241_x_at) / RFU C5orf56 (11738088_a_at) / Fold change /veh C5orf56 (11738088_a_at) / RFU OLFML3 (11715873_a_at) / Fold change /veh OLFML3 (11715873_a_at) / RFU LOC100653217 /// NTM (11731650_a_at) / Fold change /veh LOC100653217 /// NTM (11731650_a_at) / RFU MAPK11 (11762145_a_at) / Fold change /veh MAPK11 (11762145_a_at) / RFU FIZ1 (11724087_x_at) / Fold change /veh FIZ1 (11724087_x_at) / RFU OASL (11726364_x_at) / Fold change /veh OASL (11726364_x_at) / RFU SOX15 (11748057_x_at) / Fold change /veh SOX15 (11748057_x_at) / RFU CD79A (11719716_a_at) / Fold change /veh CD79A (11719716_a_at) / RFU HIST1H1D (11736915_at) / Fold change /veh HIST1H1D (11736915_at) / RFU CASKIN2 (11723855_a_at) / Fold change /veh CASKIN2 (11723855_a_at) / RFU LOC730098 (11760151_x_at) / Fold change /veh LOC730098 (11760151_x_at) / RFU OR4N2 (11742367_at) / Fold change /veh OR4N2 (11742367_at) / RFU PRRT2 (11749266_a_at) / Fold change /veh PRRT2 (11749266_a_at) / RFU SNX32 (11753110_a_at) / Fold change /veh SNX32 (11753110_a_at) / RFU CDHR5 (11726645_a_at) / Fold change /veh CDHR5 (11726645_a_at) / RFU RCAN1 (11760418_a_at) / Fold change /veh RCAN1 (11760418_a_at) / RFU FAM167A (11723789_a_at) / Fold change /veh FAM167A (11723789_a_at) / RFU FAM26E (11764081_at) / Fold change /veh FAM26E (11764081_at) / RFU ISYNA1 (11749810_s_at) / Fold change /veh ISYNA1 (11749810_s_at) / RFU ACY1 (11761880_at) / Fold change /veh ACY1 (11761880_at) / RFU 11764098_at / Fold change /veh 11764098_at / RFU SAMD14 (11745864_x_at) / Fold change /veh SAMD14 (11745864_x_at) / RFU NPB (11741838_a_at) / Fold change /veh NPB (11741838_a_at) / RFU TMPRSS6 (11731388_a_at) / Fold change /veh TMPRSS6 (11731388_a_at) / RFU KRTAP10-2 (11738614_at) / Fold change /veh KRTAP10-2 (11738614_at) / RFU ARHGAP8 /// PRR5-ARHGAP8 (11727945_x_at) / Fold change /veh ARHGAP8 /// PRR5-ARHGAP8 (11727945_x_at) / RFU KRTAP5-7 /// NADSYN1 (11734609_at) / Fold change /veh KRTAP5-7 /// NADSYN1 (11734609_at) / RFU RASL12 (11751679_a_at) / Fold change /veh RASL12 (11751679_a_at) / RFU CDKN2B (11736163_a_at) / Fold change /veh CDKN2B (11736163_a_at) / RFU PRF1 (11729649_at) / Fold change /veh PRF1 (11729649_at) / RFU, ZNF638 /// ZNF638-IT1 / Fold change vs veh, ZNF638 /// ZNF638-IT1 / RFU, PANK3 / Fold change vs veh, PANK3 / RFU, SH3YL1 / Fold change vs veh, SH3YL1 / RFU, ZEB2 / Fold change vs veh, ZEB2 / RFU, NRIP1 / Fold change vs veh, NRIP1 / RFU, PTTG1IP / Fold change vs veh, PTTG1IP / RFU, CAPN2 / Fold change vs veh, CAPN2 / RFU, MED14 / Fold change vs veh, MED14 / RFU, SNORA58 / Fold change vs veh, SNORA58 / RFU, C1orf63 / Fold change vs veh, C1orf63 / RFU, LRRFIP1 / Fold change vs veh, LRRFIP1 / RFU, NDUFAF7 / Fold change vs veh, NDUFAF7 / RFU, SLC12A2 / Fold change vs veh, SLC12A2 / RFU, IBTK / Fold change vs veh, IBTK / RFU, ESF1 / Fold change vs veh, ESF1 / Fold change vs veh, TMEM50B / RFU, TAOK1 / Fold change vs veh, TAOK1 / RFU, ACBD3 / Fold change vs veh, ACBD3 / RFU, TMA16 / Fold change vs veh, TMA16 / RFU, RWDD3 / Fold change vs veh, RWDD3 / RFU, BCAT1 / Fold change vs veh, BCAT1 / RFU, EDEM3 / Fold change vs veh, EDEM3 / RFU, TMEM33 / Fold change vs veh, TMEM33 / RFU, WDR75 / Fold change vs veh, WDR75 / RFU, AHCTF1 / Fold change vs veh, AHCTF1 / RFU, TFRC / Fold change vs veh, TFRC / RFU, ZDHHC17 / Fold change vs veh, ZDHHC17 / RFU, NOM1 / Fold change vs veh, NOM1 / RFU, ARL8B / Fold change vs veh, ARL8B / RFU, ZBTB11 / Fold change vs veh, ZBTB11 / RFU, TAMM41 / Fold change vs veh, TAMM41 / RFU, KIAA1704 /// LOC100996395 / Fold change vs veh, KIAA1704 /// LOC100996395 / RFU, ING1 / Fold change vs veh, ING1 / RFU, TRMT61B / Fold change vs veh, TRMT61B / RFU, FUBP3 / Fold change vs veh, FUBP3 / RFU, TP53 / Fold change vs veh, TP53 / RFU, TNKS2 / Fold change vs veh, TNKS2 / RFU, ZFP14 / Fold change vs veh, ZFP14 / RFU, ACTR2 / Fold change vs veh, ACTR2 / RFU, PPP3R1 / Fold change vs veh, PPP3R1 / RFU, PIK3R1 / Fold change vs veh, PIK3R1 / RFU, HNRNPA1 / Fold change vs veh, HNRNPA1 / RFU, RNF170 / Fold change vs veh, RNF170 / RFU, ZNF28 / Fold change vs veh, ZNF28 / RFU, RNGTT / Fold change vs veh, RNGTT / RFU, OGT / Fold change vs veh, OGT / RFU, BRD1 / Fold change vs veh, BRD1 / RFU, MARS / Fold change vs veh, MARS / RFU, ZNF655 / Fold change vs veh, ZNF655 / RFU, FAHD1 / Fold change vs veh, FAHD1 / RFU, BDP1 / Fold change vs veh, BDP1 / RFU, LRRCC1 / Fold change vs veh, LRRCC1 / RFU, ARID1A / Fold change vs veh, ARID1A / RFU, ZNF146 / Fold change vs veh, ZNF146 / RFU, ZNF330 / Fold change vs veh, ZNF330 / RFU, GPN3 / Fold change vs veh, GPN3 / RFU, C9orf123 / Fold change vs veh, C9orf123 / RFU, N4BP2L2 / Fold change vs veh, N4BP2L2 / RFU, ARFIP1 / Fold change vs veh, ARFIP1 / RFU, FAM179B / Fold change vs veh, FAM179B / RFU, BCL10 / Fold change vs veh, BCL10 / RFU, UHRF1BP1L / Fold change vs veh, UHRF1BP1L / RFU, BET1 / Fold change vs veh, BET1 / RFU, CNOT2 / Fold change vs veh, CNOT2 / RFU, ZNF268 / Fold change vs veh, ZNF268 / Fold change vs veh, ZNF507 / RFU, DGCR2 / Fold change vs veh, DGCR2 / RFU, WDSUB1 / Fold change vs veh, WDSUB1 / Fold change vs veh, HSP90B1 /// MIR3652 / RFU, ADSS / Fold change vs veh, ADSS / RFU, GK / Fold change vs veh, GK / RFU, ZNF148 / Fold change vs veh, ZNF148 / RFU, TAF9 / Fold change vs veh, TAF9 / RFU, SLC1A5 / Fold change vs veh, SLC1A5 / RFU, SLMO2 / Fold change vs veh, SLMO2 / RFU, ABCC4 / Fold change vs veh, ABCC4 / RFU, LOC101060439 /// RAP1B / Fold change vs veh, LOC101060439 /// RAP1B / RFU, RFX7 / Fold change vs veh, RFX7 / RFU, GTPBP10 / Fold change vs veh, GTPBP10 / RFU, CNEP1R1 / Fold change vs veh, CNEP1R1 / RFU, BIVM-ERCC5 /// ERCC5 / Fold change vs veh, BIVM-ERCC5 /// ERCC5 / RFU, ILF3 / Fold change vs veh, ILF3 / RFU 11762660_at / Fold change /veh 11762660_at / RFU VCAN (11757783_s_at) / Fold change /veh VCAN (11757783_s_at) / RFU DDX43 (11728927_at) / Fold change /veh DDX43 (11728927_at) / RFU KRT8 (11758188_x_at) / Fold change /veh KRT8 (11758188_x_at) / RFU NKD1 (11759106_at) / Fold change /veh NKD1 (11759106_at) / RFU SRD5A1 (11742802_a_at) / Fold change /veh SRD5A1 (11742802_a_at) / RFU TPSAB1 /// TPSB2 (11721975_s_at) / Fold change /veh TPSAB1 /// TPSB2 (11721975_s_at) / RFU GSTM3 (11746129_a_at) / Fold change /veh GSTM3 (11746129_a_at) / RFU IL23R (11737362_x_at) / Fold change /veh IL23R (11737362_x_at) / RFU TMEM51 (11727254_a_at) / Fold change /veh TMEM51 (11727254_a_at) / RFU PIWIL2 (11732686_x_at) / Fold change /veh PIWIL2 (11732686_x_at) / RFU ORM1 (11744905_x_at) / Fold change /veh ORM1 (11744905_x_at) / RFU CCDC152 (11743942_at) / Fold change /veh CCDC152 (11743942_at) / RFU ECM1 (11717891_a_at) / Fold change /veh ECM1 (11717891_a_at) / RFU IL23R (11748794_a_at) / Fold change /veh IL23R (11748794_a_at) / RFU TNFAIP8L3 (11732012_x_at) / Fold change /veh TNFAIP8L3 (11732012_x_at) / RFU MBOAT4 (11741988_at) / Fold change /veh MBOAT4 (11741988_at) / RFU 11764193_at / Fold change /veh 11764193_at / RFU TMEM53 (11763286_at) / Fold change /veh TMEM53 (11763286_at) / RFU MAGEB2 (11727129_at) / Fold change /veh MAGEB2 (11727129_at) / RFU TMEM200A (11744735_a_at) / Fold change /veh TMEM200A (11744735_a_at) / RFU CCDC152 (11751479_a_at) / Fold change /veh CCDC152 (11751479_a_at) / RFU FAM211A (11726209_a_at) / Fold change /veh FAM211A (11726209_a_at) / RFU RGS16 (11746705_a_at) / Fold change /veh RGS16 (11746705_a_at) / RFU VCAN (11755009_s_at) / Fold change /veh VCAN (11755009_s_at) / RFU RHOB (11743442_s_at) / Fold change /veh RHOB (11743442_s_at) / RFU RGS16 (11720943_a_at) / Fold change /veh RGS16 (11720943_a_at) / RFU RGS16 (11720944_at) / Fold change /veh RGS16 (11720944_at) / RFU, VPS4B / Fold change vs veh, VPS4B / RFU, CREB1 / Fold change vs veh, CREB1 / RFU, DNAJC13 / Fold change vs veh, DNAJC13 / RFU, GNAQ / Fold change vs veh, GNAQ / RFU, CDK5R1 / Fold change vs veh, CDK5R1 / RFU, ZRANB3 / Fold change vs veh, ZRANB3 / RFU, CUL4A / Fold change vs veh, CUL4A / RFU, CCNY / Fold change vs veh, CCNY / RFU, UFL1 / Fold change vs veh, UFL1 / RFU, COG3 / Fold change vs veh, COG3 / RFU, DIAPH2 / Fold change vs veh, DIAPH2 / RFU, SKA2 / Fold change vs veh, SKA2 / RFU, AFF3 / Fold change vs veh, AFF3 / RFU, LMF1 / Fold change vs veh, LMF1 / RFU, IPO11 / Fold change vs veh, IPO11 / RFU, DFFB / Fold change vs veh, DFFB / RFU, FOXP1 / Fold change vs veh, FOXP1 / RFU, CARD8 / Fold change vs veh, CARD8 / RFU, STRN3 / Fold change vs veh, STRN3 / RFU, ADK / Fold change vs veh, ADK / RFU, RASSF2 / Fold change vs veh, RASSF2 / RFU, WIPF1 / Fold change vs veh, WIPF1 / RFU, LARP1B / Fold change vs veh, LARP1B / RFU, RASA1 / Fold change vs veh, RASA1 / RFU, RB1 / Fold change vs veh, RB1 / RFU, PPFIA1 / Fold change vs veh, PPFIA1 / RFU, MAT2A / Fold change vs veh, MAT2A / RFU, CCT5 / Fold change vs veh, CCT5 / RFU, WDR92 / Fold change vs veh, WDR92 / RFU, CUX1 / Fold change vs veh, CUX1 / RFU, TTC7A / Fold change vs veh, TTC7A / RFU, TMEM135 / Fold change vs veh, TMEM135 / RFU, DEPTOR / Fold change vs veh, DEPTOR / RFU, CPM / Fold change vs veh, CPM / RFU, DNAJB6 / Fold change vs veh, DNAJB6 / RFU, CACNA2D3 / Fold change vs veh, CACNA2D3 / RFU, DTX4 / Fold change vs veh, DTX4 / RFU, TFCP2 / Fold change vs veh, TFCP2 / RFU, GMCL1 /// GMCL1P1 / Fold change vs veh, GMCL1 /// GMCL1P1 / RFU, AEBP2 / Fold change vs veh, AEBP2 / RFU, SNHG1 /// SNORD22 /// SNORD25 /// SNORD26 /// SNORD27 /// SNORD28 /// SNORD29 /// SNORD31 / Fold change vs veh, SNHG1 /// SNORD22 /// SNORD25 /// SNORD26 /// SNORD27 /// SNORD28 /// SNORD29 /// SNORD31 / Fold change (Aza/veh), C12orf56 (ProbeSet 11735607_a_at) / Fold change (ACY-1035/veh), C12orf56 (ProbeSet 11735607_a_at) / Fold change (Aza/veh), FGFR1OP (ProbeSet 11751329_s_at) / Fold change (ACY-1035/veh), FGFR1OP (ProbeSet 11751329_s_at) / Fold change (Aza/veh), VPS36 (ProbeSet 11739960_a_at) / Fold change (ACY-1035/veh), VPS36 (ProbeSet 11739960_a_at) / RFU SYPL1 (11715823_x_at) / Fold change /veh SYPL1 (11715823_x_at) / RFU IGFBP7 (11715501_s_at) / Fold change /veh IGFBP7 (11715501_s_at) / RFU REEP3 (11722064_at) / Fold change /veh REEP3 (11722064_at) / RFU IGLL1 (11728026_x_at) / Fold change /veh IGLL1 (11728026_x_at): dose or concentration left out as unconfirmed
Settings: MV-4-11 cells, 48 hours

## Nc1ccc(-c2cccs2)cc1NC(=O)c1ccc2c(c1)cc(C1CC1)n2CCN1CCOCC1 [ACY-1035]
  Fold change /veh KRT8 (11758188_x_at): 1.06
